The nature of series [1]: Mouse PK Study. The class given is in vivo. The note with it: plasma, male CD-1 mouse. As for the experimental part: Biological Example: Mouse PK Study
The pharmacokinetics of compounds were evaluated in male CD-1 mouse via Intravenous (dose of 1 mg/kg) and Oral Administration (dose of 10 mg/kg). For intravenous administration study, test compounds were dissolved in DMSO/EtOH/Cremophor EL/D5W (2.5/10/20/67.5, by volume) and injected with a 1 mg/kg dose via tail vein. For oral administration study, test compounds were dissolved in PEG400/Phosal 50 PG/EtOH (30/60/10, by volume) and administrated to mice at 10 mg/kg by gavage. Blood was collected into EDTA-K2 anticoagulant tube at 5 (IV only). 15, and 30 min and 1, 2, 4, 8 and 24 h after administration. Approximately 30 μL blood was collected at each time point. And then the blood was centrifuged at 3000 g for 5 min at 4° C. using a centrifuge to obtain the plasma. The plasma sample was transferred into a tube and stored in a freezer at approximately −20° C. until the determination of concentration by LC-MS/MS. Pharmacokinetic parameter were estimated by using WinNonlin software (version 8.1, Pharsight Corporation, CA, USA) with non-compartmental method. The following pharmacokinetic parameters were calculated, whenever possible from the plasma concentration-time data: CL, Vd, T1/2, AUClast, AUCinf for IV administration and Tmax, Cmax, AUClast, AUCinf, T1/2 for PO administration. All animals are free fed before experiment. For comparison purpose, the PK results of certain compounds in previous disclosure were obtained using the same methods.

The subject of series [2] is BCL-2 G101V knock-in cell line H96 (derive from RS4;11). Nature of the series: Bcl 2-G101V Knock-In RS4;11 Cell Proliferation Assay. The class given is cell-based. The note with it: Homo sapiens, RS4-11, 48 h, RS4;11 Bcl-2 G101V knock-in clone H96, 48 hrs, CellTiter-GLO, read-out: Cellular proliferation assay (IC50, nM) RS4. A digest of the protocol: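 CellTiter-Glo luminescence after 48 h, 37 °C compound treatment (10 concentrations, maximum 1 μM or 10 μM) gave mean IC50 values. Cells were 50,000 per well of H96, a BCL2-G101V knock-in single clone derived from RS4;11 by Cas9 editing.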

In series [1] (Iv dosing (1 mg/kg)), `COc1cc(CN2CCN(C3CC4(C3)CN(c3ccc(C(=O)NS(=O)(=O)c5ccc(NC[C@H]6CC[C@](C)(O)CC6)c([N+](=O)[O-])c5)c(Oc5cnc6[nH]ccc6c5)c3)C4)[C@H](c3ccccc3C(C)C)C2)ccc1C1CC1` [Example 233, 2-((1H-pyrrolo[2,3-b]pyridin-5-yl)oxy)-4-(6-((R)-4-(4-cyclopropyl-3-methoxybenzyl)-2-(2-isopropylphenyl)piperazin-1-yl)-2-azaspiro[3.3]heptan-2-yl)-N-((4-((((1r,4r)-4-hydroxy-4-methylcyclohexyl)methyl)amino)-3-nitrophenyl)sulfonyl)benzamide] gave an AUC(0-t) of 17200 ng·h/mL, a Vd of 0.8 L/kg and a clearance of 1 mL/min/kg. In series [1] (Po dosing (10 mg/kg)), this compound registered an AUC(0-t) of 17400 ng·h/mL and a Cmax of 1100 ng/mL. Also, the IC50 in series [2] came to 0.25 nM.
As for `COc1cc(CN2CCN(C3CC4(C3)CN(c3ccc(C(=O)NS(=O)(=O)c5ccc(NC[C@H]6CC[C@](C)(O)CC6)c([N+](=O)[O-])c5)c(Oc5cnc6[nH]cc(F)c6c5)c3)C4)[C@H](c3ccccc3C(C)C)C2)cc2cc(C)oc12` [Example 338, 2-((3-fluoro-1H-pyrrolo[2,3-b]pyridin-5-yl)oxy)-N-((4-((((1r,4r)-4-hydroxy-4-methylcyclohexyl)methyl)amino)-3-nitrophenyl)sulfonyl)-4-(6-((R)-2-(2-isopropylphenyl)-4-((7-methoxy-2-methylbenzofuran-5-yl)methyl)piperazin-1-yl)-2-azaspiro[3.3]heptan-2-yl)benzamide], in series [1] (Iv dosing (1 mg/kg)), the AUC(0-t) came out at 42900 ng·h/mL, the Vd is 0.37 L/kg and the clearance worked out at 0.4 mL/min/kg. In series [1] (Po dosing (10 mg/kg)), the AUC(0-t) is 11600 ng·h/mL and the highest level (Cmax) was 699 ng/mL. Also, in series [2], the IC50 came to 0.15 nM.

Values taken from patent US20240376097A1, “BCL-2 Inhibitor” (BeiGene Ltd., priority 2020, published 2024).
